For one test, the system named is COLO 201. The experiment in a line: Antiproliferative activity against human COLO201 cells after 24 hrs by WST-1 assay. It counts as functional, cell-based. A general note: Tetrazolium assays rely on reduction of a dye to a coloured formazan, in cell work by metabolically active cells.
For test [1], the system named is Bipolaris oryzae. The experiment in a line: Antifungal activity against Cochliobolus miyabeanus 131004 assessed as zone of inhibition at 500 ug/disk after 4 days by paper disk method. The following applies: Bipolaris oryzae, 131004, 96 h; read-out: IZ. The test is classed as functional.
Test [2] relates to Bipolaris oryzae. The experiment in a line: Antifungal activity against Cochliobolus miyabeanus 131004 assessed as zone of inhibition at 100 ug/disk after 4 days by paper disk method. It counts as functional. As to conditions: Bipolaris oryzae, 131004, 96 h; read-out: IZ.
For test [3], the system named is Bipolaris oryzae. The experiment in a line: Antifungal activity against Cochliobolus miyabeanus 131004 assessed as zone of inhibition at 10 ug/disk after 4 days by paper disk method. The test is classed as functional. The following applies: Bipolaris oryzae, 131004, 96 h; read-out: IZ.
Test [4] concerns Bipolaris oryzae. The experiment in a line: Antifungal activity against Cochliobolus miyabeanus 131004 assessed as zone of inhibition at 50 ug/disk after 4 days by paper disk method. It counts as functional, organism-based.

Active and inactive are the calls of the source. The calls are words filed in the database; no cut-off is given here.

A word on the IC50: it is the concentration that inhibits the measured activity by half.

`C=C1[C@H]2C[C@H]3OC(=O)/C=C\C=C\[C@@H]4O[C@@H](O[C@H]4C)[C@H](O)/C(C)=C/C(=O)OC[C@@]4(CCC(C)=C[C@H]4O2)[C@]13C` registered an IC50 in the test with COLO 201 (Homo sapiens, COLO 201, 24 h) of 50 µM. In addition, the zone of inhibition at 500 µg/disc in the test with Bipolaris oryzae [1] amounted to 0 mm. For the same compound, the zone of inhibition at 100 µg/disc in the test on Bipolaris oryzae [2] came out at 0 mm. The zone of inhibition at 10 µg/disc in the test with Bipolaris oryzae [3] was determined as 0 mm.
Take `CC1=C[C@H]2O[C@@H]3C[C@H]4OC(=O)/C=C\C=C\[C@@H]5O[C@H](C/C(C)=C/C(=O)OC[C@@]2(CC1)[C@]4(C)[C@]31CO1)O[C@H]5C`: inhibition in the test on COLO 201 (colo 201) was half-maximal at 82 µM (IC50).
As to `CC(=O)O[C@@H]1C[C@H]2O[C@@H]3C=C(C)CC[C@]3(C)[C@]1(C)[C@]21CO1`, the IC50 in the test with COLO 201 (colo 201) turned out to be 123 µM.
Still for that read-out and setting: for `CC1=C[C@H]2O[C@@H]3C[C@H]4OC(=O)/C=C\C=C\[C@@H]5O[C@@H](O[C@H]5C)[C@H](O)/C(C)=C/C(=O)OC[C@@]2(CC1)[C@]4(C)[C@]31CO1` the value was 42 µM.
`C=C1[C@H]2C[C@H]3OC(=O)/C=C\C=C\[C@@H]([C@@H](C)O)OCC/C(C)=C/C(=O)OC[C@@]4(CCC(C)=C[C@H]4O2)[C@]13C` displayed an IC50 with COLO 201 (Homo sapiens, COLO 201, 24 h) of 51 µM. Further, the zone of inhibition at 500 µg/disc in the test on Bipolaris oryzae [1] came out at 0 mm. Further, the zone of inhibition at 100 µg/disc in the test on Bipolaris oryzae [2] was determined as 0 mm. In addition, the zone of inhibition at 10 µg/disc in the test on Bipolaris oryzae [3] was found to be 0 mm.
Take `CC(=O)O[C@H]1C[C@@]23COC(=O)/C=C(\C)C[C@@H]4O[C@@H](C)[C@H](/C=C/C=C\C(=O)O[C@@H]5C[C@@H](O[C@@H]2C=C1C)[C@@]1(CO1)[C@]53C)O4`: in the test on COLO 201 (colo 201), half-maximal inhibition (IC50) required 46 µM.
On the same count and under the same terms, to `CC1=C[C@H]2O[C@@H]3C[C@H]4OC(=O)/C=C\C=C\[C@@H]([C@@H](C)O)OCC/C(C)=C/C(=O)OC[C@@]2(CC1)[C@]4(C)[C@]31CO1` belongs 47 µM.
Take `C=C1[C@H]2CC[C@]1(C)[C@@]1(CO)[C@H](O)C(=O)C(C)=C[C@H]1O2`: in the test with Bipolaris oryzae [4], the “inhibition zone (IZ)” value is “inactive”. In the test on COLO 201 (Homo sapiens, COLO 201, 24 h), the IC50 was above 700 µM. Besides, in the test with Bipolaris oryzae [3], the zone of inhibition at 10 µg/disc was found to be 0 mm.
Compound `C=C1[C@H]2C[C@@H](OC(C)=O)[C@]1(C)[C@@]1(C)CCC(C)=C[C@H]1O2` registered an IC50 in the test with COLO 201 (Homo sapiens, COLO 201, 24 h) of 420 µM. The zone of inhibition at 500 µg/disc in the test with Bipolaris oryzae [1] was 0 mm. In addition, in the test with Bipolaris oryzae [2], the zone of inhibition at 100 µg/disc was 0 mm. In the test with Bipolaris oryzae [3], the zone of inhibition at 10 µg/disc was 0 mm.
As to `CC1=C[C@H]2O[C@@H]3C[C@H]4OC(=O)/C=C\C=C\[C@@H]5O[C@H](C/C(C)=C/C(=O)OC[C@@]2(C[C@@H]1O)[C@]4(C)[C@]31CO1)O[C@H]5C`, in the test with COLO 201 (colo 201), the IC50 worked out at 51 µM.
Still for that read-out and setting: to `CC1=C[C@H]2O[C@@H]3[C@H](O)C[C@](C)([C@@]2(CO)[C@H](O)C1=O)[C@]31CO1` [DEOXYNIVALENOL] belongs 86 µM.

The values above are taken from ChEMBL document CHEMBL4400555, “Structure-activity relationships of trichothecenes against COLO201 cells and Cochliobolus miyabeanus: The role of 12-epoxide and macrocyclic moieties” (Bioorg Med Chem Lett, 2019).
